Assay results published in patent US20130296539A1, “MAGNETIC RESONANCE IMAGING AGENTS FOR CALCIFICATION” (priority 2012, published 2013).

Columns and labels:
[1] = Quantitation of calcium salt specificity by UTE MRI; conditions: 10 μM in PBS, 1 h at RT, UTE MRI before and after washing crystals
Experimental: (§1) MRI can be performed on a 1.5 T GE Signa clinical scanner equipped with a custom low-pass birdcage coil (10 cm length, 6 cm diameter). The custom UTE sequence is based on previous work in the field {Irarrazabal, 1995; Song, 1998}.
5 mg of HA or the phosphate, oxalate, carbonate, or pyrophosphate salts of calcium is placed in 1.5 ml Eppendorf tube and is incubated with 10 μM [Gd^3+-DOTA]-Thr-Pam-Na in 50 μL PBS for 1 h at RT with continuous vortexing. UTE MRI acquisition is performed pre- and post-washing with 4×500 μL PBS using TR=200 msec and TE=100 μsec. Other acquisition parameters includes FOV=9 cm, slice thickness=10 mm, matrix size=256×256, NEX=2.

[2] = In-vivo UTE MRI of subcutaneously implanted HA crystals; conditions: mice, intravenous injection, minimum of 4 h of clearance; compared with microCT
Experimental: as §1
50 mg of HA crystals is taken in 300 μL PBS, is implanted subcutaneously at right flank of anesthetized mice. UTE MRI is taken after implantation of HA crystal using TR/TE=200 msec/100 μsec, FOV=6 cm, slice thickness=5 mm, matrix size=256×256. 4 μmol of [Gd^3+-DOTA]-Thr-Pam-Na in 300 μL saline is injected intravenously. After 4 h of clearance, an UTE MRI is taken with same parameters.

[3] = In-vitro UTE and GRE MRI of HA crystals bound by contrast agent; conditions: short incubation with HA crystals in PBS, UTE sequence TR=200 msec, TE=100 μsec
Experimental: as §1
1 mM of [Gd^3+-DOTA]-Thr-Pam-Na is added to 5 mg of HA crystals in 50 μL PBS (pH 7.4) and is vortexed for 1 h at RT in a 1.5 mL Eppendorf tube. 5 mg HA in 1 mM of [Gd^3+-DOTA]-Thr and 50 μL PBS is used as a control. MRI, pre- and post-washing with 4×500 μL PBS, are acquired using an UTE sequence (TR=200 msec, TE=100 μsec) or conventional GRE sequence (TR=200 msec, TE=1.8 msec). Other acquisition parameters includes FOV=6 cm, slice thickness=5 mm, matrix size=256×256, NEX=4.

[4] = Contrast agent concentration and TR dependence of UTE MRI signals; conditions: 5 mg HA, 1 h at RT, washed with PBS, UTE MRI TE=100 μsec
Experimental: as §1
5 mg HA is placed in 1.5 mL plastic Eppendorf tubes, then 0, 0.1, 1, 10, or 100 μM [Gd^3+-DOTA]-Thr-Pam-Na in 50 μL PBS is added to each. After vortexing 1 h at RT, the crystals are washed with 4×500 μL PBS and UTE MRI acquisition is performed using a fixed TE=100 μsec and varying TR of 17, 50, 200, 500 msec. Other acquisition parameters includes FOV=11 cm, slice thickness=10 mm, matrix size=256×256, NEX=2.

Substance: [Gd^3+-DOTA]-Thr-Pam-Na
- Specificity for HA over other calcium salts [1]: more than three fold higher specificity for HA over other calcium salts
- In-vivo detection of HA crystals by UTE MRI [2]: UTE MRI provides a sensitive detection of HA crystals in-vivo
- Detection of HA crystals by UTE MRI [3]: able to detect HA crystals with high sensitivity
- Lowest incubation concentration resulting in detectable signal enhancement [4]: 1 µM
